From US20160039825A1 (BIOGEN MA INC., priority 2013, published 2016) come the findings set out here.

The first test deals with T1, Human ATX protein (Homo sapiens, UniProt Q13822).
T1 construct: made in house
Put plainly: Autotaxin (ATX) assay, FRET with FS-3 substrate. The format is biochemical. The conditions noted are these: 10 uM compound. An outline of the steps:
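Hydrolysis of the FRET substrate FS-3 (2 μM final) unquenches fluorescein, read at excitation 485 nm and emission 538 nm after 2 h at room temperature, protected from light. Purified human ATX (1.0 μg/mL) and compound were first incubated for 30 min in pH 7.4 Tris/salt buffer containing 1 mg/mL fatty acid-free BSA.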
In general, inhibition refers to the percentage by which the read-out fell short of the control. A low value points to little suppression. `O=C(OCc1cc(C(F)(F)F)cc(C(F)(F)F)c1)N1CCCn2nc(CO)cc2C1` [Example 282, 3,5-bis(trifluoromethyl)benzyl 2-(hydroxymethyl)-7,8-dihydro-4H-pyrazolo[1,5-a][1,4]diazepine-5(6H)-carboxylate] gave an inhibition at 10 µM of 60%.

The test is the same for the next values; noted with them: upper bound bins (no greater than 100, 250 or 500 nM); FS-3 2 μM, ATX 1.0 μg/mL.
Usually IC50 stands for the point on the concentration scale where inhibition reaches its midpoint. Higher therefore signals a need for much substance. With `CC(C)(C)NC(=O)c1cc2n(n1)CCCN(C(=O)OCc1cc(Cl)cc(Cl)c1)C2` [Example 14, 3,5-Dichlorobenzyl 2-(tert-butylcarbamoyl)-7,8-dihydro-4H-pyrazolo[1,5-a][1,4]diazepine-5(6H)-carboxylate], the half-inhibitory concentration (IC50) was not above 250 nM. With `O=C(O)C1CC2CCCC(C1)N2C(=O)c1cc2n(n1)CCN(C(=O)OCc1cc(Cl)cc(Cl)c1)C2` (stereo not shown) [Example 41, 9-(5-(((3,5-Dichlorobenzyl)oxy)carbonyl)-4,5,6,7-tetrahydropyrazolo[1,5-a]pyrazine-2-carbonyl)-9-azabicyclo[3.3.1]nonane-3-carboxylic acid], the IC50 was not above 100 nM.

For `CC(c1cc2n(n1)CCN(C(=O)OCc1cc(C(F)(F)F)cc(C(F)(F)F)c1)C2)N1CCCCC1` (stereo not shown) [Example 458], the IC50 was not above 100 nM. The same measure, in the same setting: the value for `O=C(OCc1cc(Cl)cc(C(F)(F)F)c1)N1CCCn2nc(C(=O)N3CCC4(CCNCC4)C3)cc2C1` [Example 169] was not above 100 nM; that for `O=C(O)C1CC2CCCC(C1)N2C(=O)c1cc2n(n1)CCCN(C(=O)OCc1cccc(Cl)c1)C2` (stereo not shown) [Example 57, 9-(5-((3-Chlorobenzyloxy)carbonyl)-5,6,7,8-tetrahydro-4H-pyrazolo[1,5-a][1,4]diazepine-2-carbonyl)-9-aza-bicyclo[3.3.1]nonane-3-carboxylic acid] was not above 250 nM. The same measure, in the same setting: to `O=C(NCCO)c1cc2n(n1)CCN(C(=O)OCc1cc(C(F)(F)F)cc(C(F)(F)F)c1)C2` [Example 460, 3,5-bis(trifluoromethyl)benzyl 2-((2-hydroxyethyl)carbamoyl)-6,7-dihydropyrazolo[1,5-a]pyrazine-5(4H)-carboxylate] belongs not above 100 nM. The same measure, in the same setting: the value for `NC1CN(C(=O)c2cc3n(n2)CCN(C(=O)OCc2cc(Cl)cc(C(F)(F)F)c2)C3)C1` [Example 431] was not above 100 nM; that for `O=C(O)C1CCN(C(=O)c2cc3n(n2)CCCN(C(=O)OCc2cc(Cl)cc(Cl)c2)C3)CC1` [Example 87, 1-(5-(((3,5-Dichlorobenzyl)oxy)carbonyl)-5,6,7,8-tetrahydro-4H-pyrazolo[1,5-a][1,4]diazepine-2-carbonyl)piperidine-4-carboxylic acid] was not above 100 nM; that for `O=C(OCc1cc(C(F)(F)F)cc(C(F)(F)F)c1)N1CCCn2nc(NC3CCNCC3)cc2C1` [Example 313, 3,5-bis(trifluoromethyl)benzyl 2-(piperidin-4-ylamino)-7,8-dihydro-4H-pyrazolo[1,5-a][1,4]diazepine-5(6H)-carboxylate] was not above 250 nM.

As for `Cc1nc(-c2cc3n(n2)CCCN(C(=O)OCc2cc(C(F)(F)F)cc(C(F)(F)F)c2)C3)no1` [Example 392, 3,5-bis(Trifluoromethyl)benzyl 2-(5-methyl-1,2,4-oxadiazol-3-yl)-7,8-dihydro-4H-pyrazolo[1,5-a][1,4]diazepine-5(6H)-carboxylate], the IC50 was not above 100 nM.

Regarding `CN1CCN(C(=O)c2cc3n(n2)CCCN(C(=O)OCc2cc(C(F)(F)F)cc(C(F)(F)F)c2)C3)C(C)(C)C1` [Example 218], the IC50 was not above 100 nM. On to `CNCc1cc2n(n1)CCCN(C(=O)OCc1cc(C(F)(F)F)cc(C(F)(F)F)c1)C2` [Example 294], for which the IC50 was not above 500 nM.

In turn, `O=C(OCc1cc(C(F)(F)F)cc(C(F)(F)F)c1)N1CCCn2nc(C(=O)N3CCC(O)CC3)cc2C1` [Example 31, 3,5-Bis(trifluoromethyl)benzyl 2-(4-hydroxypiperidine-1-carbonyl)-7,8-dihydro-4H-pyrazolo[1,5-a][1,4]diazepine-5(6H)-carboxylate] had a concentration for half-maximal inhibition (IC50) not above 100 nM.

For `O=C(OCc1cc(Cl)cc(C(F)(F)F)c1)N1CCCn2nc(C(=O)N3CCN4CCC[C@@H]4C3)cc2C1` [Example 214], the IC50 was not above 100 nM.

For `C[C@@H]1CCCN1CC(=O)c1cc2n(n1)CCCN(C(=O)OCc1cc(Cl)cc(C(F)(F)F)c1)C2` [Example 265], the half-inhibitory concentration (IC50) is not above 100 nM.

In turn, `O=C(O)C1CC2CCC(C1)N2Cc1cc2n(n1)CCCN(C(=O)OCc1cc(C(F)(F)F)cc(C(F)(F)F)c1)C2` (stereo not shown) [Example 296] gave an IC50 not above 250 nM.

Consider `O=C(O)C1CC2CCCC(C1)N2C(=O)c1cc2n(n1)CCCN(C(=O)NCc1cc(Cl)cc(Cl)c1)C2` (stereo not shown) [Example 49, 9-(5-((3,5-Dichlorobenzyl)carbamoyl)-5,6,7,8-tetrahydro-4H-pyrazolo[1,5-a][1,4]diazepine-2-carbonyl)-9-azabicyclo[3.3.1]nonane-3-carboxylic acid], for which the concentration for half-maximal inhibition (IC50) was not above 100 nM. `O=C(O)c1cc2n(n1)CCCN(C(=O)OCc1cc(F)cc(Br)c1)C2` [Example 75, 5-(((3-Bromo-5-fluorobenzyl)oxy)carbonyl)-5,6,7,8-tetrahydro-4H-pyrazolo[1,5-a][1,4]diazepine-2-carb oxylic acid] returned an IC50 not above 500 nM. Same read-out and setting: the value for `CN1CCN(C(=O)c2cc3n(n2)CCCN(C(=O)OCc2cc(Cl)cc(C(F)(F)F)c2)C3)CC1C(=O)O` (stereo not shown) [Example 185] was not above 100 nM; that for `CC(C)(C)OC(=O)N1CC=C(c2cc3n(n2)CCN(C(=O)OCc2cc(C(F)(F)F)cc(C(F)(F)F)c2)C3)CC1` [Example 497] was not above 100 nM; that for `O=C(O)C1CC2CCCC(C1)N2C(=O)c1cc2n(n1)CCCN(C(=O)OCc1ccc(C(F)(F)F)cc1)C2` (stereo not shown) [Example 60] was not above 100 nM.

The compound `CN1CCN(C(=O)c2cc3n(n2)CCCN(C(=O)OCc2cc(Cl)cc(Cl)c2)C3)CC1` [Example 25, 3,5-Dichlorobenzyl 2-(4-methylpiperazine-1-carbonyl)-7,8-dihydro-4H-pyrazolo[1,5-a][1,4]diazepine-5(6H)-carboxylate] gave a 50% inhibitory concentration (IC50) not above 100 nM. As for `O=C(OCc1cc(Cl)cc(Cl)c1)N1CCCn2nc(C(=O)N3CCC(F)CC3)cc2C1` [Example 20, 3,5-Dichlorobenzyl 2-(4-fluoropiperidine-1-carbonyl)-7,8-dihydro-4H-pyrazolo[1,5-a][1,4]diazepine-5(6H)-carboxylate], the IC50 is not above 100 nM. On the same count and under the same terms, the value for `CS(=O)(=O)NC(=O)c1cc2n(n1)CCCN(C(=O)OCc1cc(C(F)(F)F)cc(C(F)(F)F)c1)C2` [Example 299, 3,5-bis(trifluoromethyl)benzyl 2-((methylsulfonyl)carbamoyl)-7,8-dihydro-4H-pyrazolo[1,5-a][1,4]diazepine-5(6H)-carboxylate] was not above 100 nM; that for `O=C(OCc1cc(Cl)cc(C(F)(F)F)c1)N1CCn2nc(C(=O)N3CC4CNCC4C3)cc2C1` (stereo not shown) [Example 442] was not above 100 nM. `COCc1cc2n(n1)CCCN(C(=O)OCc1cc(C(F)(F)F)cc(C(F)(F)F)c1)C2` [Example 285, 3,5-bis(trifluoromethyl)benzyl 2-(methoxymethyl)-7,8-dihydro-4H-pyrazolo[1,5-a][1,4]diazepine-5(6H)-carboxylate] gave an IC50 not above 100 nM. In turn, `O=C(OCc1cc(C(F)(F)F)cc(C(F)(F)F)c1)N1CCCn2nc(C(=O)N3CCN(CCO)CC3)cc2C1` [Example 298, 3,5-bis(trifluoromethyl)benzyl 2-(4-(2-hydroxyethyl)piperazine-1-carbonyl)-7,8-dihydro-4H-pyrazolo[1,5-a][1,4]diazepine-5(6H)-carboxylate] registered an IC50 not above 100 nM.
